Source: ChEMBL document CHEMBL2046442, “Rationally designing safer anilines: the challenging case of 4-aminobiphenyls” (J Med Chem, 2012)

How the values were obtained:
Type in all cases: toxicity, organism-based
Conditions in all cases: salmonella enterica subsp. enterica serovar typhimurium
[1] = system: Salmonella typhimurium; assay: Induction of mutagenesis in Salmonella typhimurium TA98 up to 5000 ug/plate by Ames test
[2] = system: Salmonella typhimurium; assay: Induction of mutagenesis in Salmonella typhimurium TA98 up to 5000 ug/plate by Ames test in presence of rat liver S9 fraction
[3] = system: Salmonella typhimurium; assay: Induction of mutagenesis in Salmonella typhimurium TA100 up to 5000 ug/plate by Ames test
[4] = system: Salmonella typhimurium; assay: Induction of mutagenesis in Salmonella typhimurium TA100 up to 5000 ug/plate by Ames test in presence of rat liver S9 fraction
[5] = system: Salmonella typhimurium; assay: Induction of mutagenesis in Salmonella typhimurium TA98 at 500 ug/plate by Ames test in presence of rat liver S9 fraction relative to control
[6] = system: Salmonella typhimurium; assay: Induction of mutagenesis in Salmonella typhimurium TA100 at 160 ug/plate by Ames test in presence of rat liver S9 fraction relative to control
[7] = system: Salmonella typhimurium; assay: Induction of mutagenesis in Salmonella typhimurium TA98 at 160 ug/plate by Ames test in presence of rat liver S9 fraction relative to control
[8] = system: Salmonella typhimurium; assay: Induction of mutagenesis in Salmonella typhimurium TA98 at 1600 ug/plate by Ames test in presence of rat liver S9 fraction relative to control
[9] = system: Salmonella typhimurium; assay: Induction of mutagenesis in Salmonella typhimurium TA100 at 50 ug/plate by Ames test in presence of rat liver S9 fraction relative to control
[10] = system: Salmonella typhimurium; assay: Induction of mutagenesis in Salmonella typhimurium TA100 at 500 ug/plate by Ames test in presence of rat liver S9 fraction relative to control
[11] = system: Salmonella typhimurium; assay: Induction of mutagenesis in Salmonella typhimurium TA98 at 50 ug/plate by Ames test in presence of rat liver S9 fraction relative to control
[12] = system: Salmonella typhimurium; assay: Induction of mutagenesis in Salmonella typhimurium TA100 at 16 ug/plate by Ames test in presence of rat liver S9 fraction relative to control

Question: What does the source list for N#Cc1cc(N)ccc1-c1ccccc1Cl?
Answer: Activity [1]: Non-toxic; Activity [2]: Non-toxic; Activity [3]: Non-toxic; Activity [4]: Non-toxic

Question: What does the source list for Nc1ccc(-c2c(F)cccc2F)cc1?
Answer: Activity [1]: Non-toxic; fold change (FC) [5]: 7; Activity [3]: Non-toxic; fold change (FC) [6]: 3

Question: Which results are given for Nc1ccc(-c2ccccc2F)c(F)c1?
Answer: Activity [1]: Non-toxic; Activity [2]: Non-toxic; Activity [3]: Non-toxic; Activity [4]: Non-toxic

Question: For Nc1ccc(-c2ccccc2Cl)cc1, which Activity [1] is on record?
Answer: Its Activity is “Non-toxic”.

Question: What about the “fold change (FC)” value [7] of the same compound?
Answer: The value was 11.

Question: And the Activity [3]?
Answer: Its Activity is “Non-toxic”.

Question: What about the “fold change (FC)” value [6] of the same compound?
Answer: Its value is 5.

Question: How did the Activity [1] turn out when Nc1ccc(-c2ccccc2Cl)c(F)c1 was run?
Answer: Its Activity is “Non-toxic”.

Question: And the Activity [2]?
Answer: Its Activity is “Non-toxic”.

Question: What about the Activity [3] of the same compound?
Answer: Its Activity is “Non-toxic”.

Question: What about the Activity [4] of the same compound?
Answer: Its Activity is “Non-toxic”.

Question: For CS(=O)(=O)NCc1ccc(-c2ccc(N)cc2F)c(Cl)c1, which Activity [1] is on record?
Answer: The Activity was “Non-toxic”.

Question: What about the “fold change (FC)” value [8] of the same compound?
Answer: The value was 3.

Question: What about the Activity [3] of the same compound?
Answer: The Activity was “Non-toxic”.

Question: What about the Activity [4] of the same compound?
Answer: Its Activity is “Non-toxic”.

Question: N#Cc1ccc(-c2ccc(N)cc2F)c(Cl)c1 was tested. Which Activity [1] did it give?
Answer: The Activity was “Non-toxic”.

Question: What about the Activity [2] of the same compound?
Answer: Its Activity is “Non-toxic”.

Question: And the Activity [3]?
Answer: The Activity was “Non-toxic”.

Question: What about the Activity [4] of the same compound?
Answer: Its Activity is “Non-toxic”.

Question: Which Activity [1] does the source give for Nc1ccc(-c2ccccc2)c(F)c1 here?
Answer: Its Activity is “Non-toxic”.

Question: What about the “fold change (FC)” value [7] of the same compound?
Answer: The value was 2.

Question: And the Activity [3]?
Answer: Its Activity is “Non-toxic”.

Question: And the “fold change (FC)” value [6]?
Answer: The value was 3.

Question: For Nc1ccc(-c2ccccc2)c(Cl)c1, which Activity [1] is on record?
Answer: The Activity was “Non-toxic”.

Question: And the Activity [2]?
Answer: The Activity was “Non-toxic”.

Question: What about the Activity [3] of the same compound?
Answer: The Activity was “Non-toxic”.

Question: And the Activity [4]?
Answer: The Activity was “Non-toxic”.

Question: Which results are given for Nc1ccc(-c2ccccc2F)cc1?
Answer: Activity [1]: Non-toxic; fold change (FC) [7]: 26; Activity [3]: Non-toxic; fold change (FC) [6]: 10

Question: Nc1ccc(-c2cccc(Cl)c2)cc1 was tested. Which Activity [1] did it give?
Answer: Its Activity is “Non-toxic”.

Question: What about the “fold change (FC)” value [7] of the same compound?
Answer: Its value is 47.

Question: And the Activity [3]?
Answer: Its Activity is “Non-toxic”.

Question: And the “fold change (FC)” value [9]?
Answer: Its value is 12.

Question: With Nc1ccc(-c2ccc(Cl)cc2)cc1 as the compound, how does the Activity [1] read?
Answer: The Activity was “Non-toxic”.

Question: And the “fold change (FC)” value [7]?
Answer: The value was 54.

Question: And the Activity [3]?
Answer: The Activity was “Non-toxic”.

Question: What about the “fold change (FC)” value [10] of the same compound?
Answer: The value was 14.

Question: Which Activity [1] does the source give for Nc1ccc(-c2c(F)cccc2F)c(F)c1 here?
Answer: The Activity was “Non-toxic”.

Question: What about the Activity [2] of the same compound?
Answer: Its Activity is “Non-toxic”.

Question: And the Activity [3]?
Answer: The Activity was “Non-toxic”.

Question: What about the Activity [4] of the same compound?
Answer: The Activity was “Non-toxic”.

Question: For Nc1ccc(-c2ccc(F)cc2F)c(F)c1, which Activity [1] is on record?
Answer: The Activity was “Non-toxic”.

Question: And the Activity [2]?
Answer: The Activity was “Non-toxic”.

Question: What about the Activity [3] of the same compound?
Answer: The Activity was “Non-toxic”.

Question: What about the Activity [4] of the same compound?
Answer: Its Activity is “Non-toxic”.

Question: For N#Cc1cc(Cl)ccc1-c1ccc(N)cc1F, which Activity [1] is on record?
Answer: Its Activity is “Non-toxic”.

Question: And the Activity [2]?
Answer: Its Activity is “Non-toxic”.

Question: What about the Activity [3] of the same compound?
Answer: Its Activity is “Non-toxic”.

Question: And the Activity [4]?
Answer: The Activity was “Non-toxic”.

Question: With Nc1ccc(-c2c(F)cccc2Cl)c(F)c1 as the compound, how does the Activity [1] read?
Answer: Its Activity is “Non-toxic”.

Question: What about the Activity [2] of the same compound?
Answer: The Activity was “Non-toxic”.

Question: What about the Activity [3] of the same compound?
Answer: Its Activity is “Non-toxic”.

Question: And the Activity [4]?
Answer: Its Activity is “Non-toxic”.

Question: Which Activity [1] does the source give for Nc1ccc(-c2ccccc2)cc1Cl here?
Answer: The Activity was “Non-toxic”.

Question: And the “fold change (FC)” value [11]?
Answer: Its value is 54.

Question: What about the Activity [3] of the same compound?
Answer: Its Activity is “Non-toxic”.

Question: And the “fold change (FC)” value [9]?
Answer: Its value is 37.

Question: What does the source list for Nc1ccc(-c2ccccc2)cc1F?
Answer: Activity [1]: Non-toxic; fold change (FC) [11]: 54; Activity [3]: Non-toxic; fold change (FC) [12]: 27

Question: Which results are given for Nc1ccc(-c2ccc(F)cc2)cc1?
Answer: Activity [1]: Non-toxic; fold change (FC) [7]: 43; Activity [3]: Non-toxic; fold change (FC) [6]: 21

Question: How did the Activity [1] turn out when Nc1ccc(-c2cccc(F)c2)cc1 was run?
Answer: The Activity was “Non-toxic”.

Question: And the “fold change (FC)” value [7]?
Answer: The value was 38.

Question: What about the Activity [3] of the same compound?
Answer: The Activity was “Non-toxic”.

Question: And the “fold change (FC)” value [6]?
Answer: The value was 13.
